In US20030203966A1, “Nitromethylthiobenzene derivatives as aldose reductase inhihibitors” (priority 1996, published 2003):
Structures can show the parent of a compound that is named as a salt.

For `Cc1ccccc1CS(=O)(=O)Nc1cc(C)c(S(=O)(=O)C[N+](=O)[O-])c(C)c1` [Example 51, N-[3,5-Dimethyl-4-[(nitromethyl)sulphonyl]phenyl]-(2-methylphenyl)methanesulphonamide], the melting point was 167 to 169 °C.
For `Cc1cc(NS(=O)(=O)c2ccccc2)cc(C)c1S(=O)(=O)C(Cl)(Cl)[N+](=O)[O-]` [Example 33, N-[4-[(Dichloronitromethyl)sulphonyl]-3,5-dimethylphenyl]benzenesulphonamide], the melting point was 112 to 114 °C.
`Cc1cc(NS(=O)(=O)c2ccc(Cl)cc2)cc(C)c1S(=O)(=O)C[N+](=O)[O-]` [Example 5, 4-Chloro-N-[3,5-dimethyl-4-[(nitromethyl)sulphonyl]-phenyl]benzenesulphonamide] showed a melting point of 160 to 162 °C.
`Cc1cc(NS(=O)(=O)c2ccccc2Br)cc(C)c1S(=O)(=O)C[N+](=O)[O-]` [Example 17, 2-Bromo-N-[3,5-dimethyl-4-[(nitromethyl)sulphonyl]-phenyl]benzenesulphonamide] showed a melting point of 140 to 142 °C.
In the case of `Cc1cc(NS(=O)(=O)c2ccc(C(F)(F)F)cc2)cc(C)c1S(=O)(=O)C[N+](=O)[O-]` [Example 35, N-[3,5-Dimethyl-4-[(nitromethyl)sulphonyl]phenyl]-4-(trifluoromethyl)benzenesulphonamide], the melting point is reported as 187 to 188 °C.
For `Cc1cc(NS(=O)(=O)c2cccs2)cc(C)c1S(=O)(=O)C[N+](=O)[O-]` [Example 32, N-[3,5-Dimethyl-4-[(nitromethyl)sulphonyl]phenyl]-2-thiophenesulphonamide], the melting point was 158 to 159 °C.
Work on `Cc1cc(NS(=O)(=O)c2cccnc2)cc(C)c1S(=O)(=O)C[N+](=O)[O-]` [Example 47, N-[3,5-Dimethyl-4-[(nitromethyl)sulphonyl]phenyl]-3-pyridinesulphonamide] yielded a melting point of 191 to 192 °C.
`Cc1cc(NS(=O)(=O)/C=C/c2ccccc2)cc(C)c1S(=O)(=O)C[N+](=O)[O-]` [Example 19, (E)-N-[3,5-Dimethyl-4-[(nitromethyl)sulphonyl]phenyl]-styrenesulphonamide] gave a melting point of 174 to 176 °C.
`Cc1cc(NS(=O)(=O)c2cccc3ccccc23)cc(C)c1S(=O)(=O)C[N+](=O)[O-]` [Example 31, N-[3,5-Dimethyl-4-[(nitromethyl)sulphonyl]phenyl]-1-naphthalenesulphonamide] showed a melting point of 170 to 172 °C.
In the case of `O=C(CCCC(=O)Nc1ccc(S(=O)(=O)C[N+](=O)[O-])cc1)Nc1ccc(S(=O)(=O)C[N+](=O)[O-])cc1`, the melting point is reported as 203 to 205 °C.
`Cc1cc(NS(=O)(=O)c2ccc(OC(F)(F)F)cc2)cc(C)c1S(=O)(=O)C[N+](=O)[O-]` [Example 36, N-[3,5-Dimethyl-4-[(nitromethyl)sulphonyl]phenyl]-4-(trifluoromethoxy)benzenesulphonamide] showed a melting point of 180 to 182 °C.
With `Cc1cc(NS(=O)(=O)CC(F)(F)F)cc(C)c1S(=O)(=O)C[N+](=O)[O-]` [Example 23, N-[3,5-Dimethyl-4-[(nitromethyl)sulphonyl]phenyl]-2,2,2-trifluoroethanesulphonamide] the melting point was 168 to 170 °C.
`Cc1cc(NS(=O)(=O)c2ccccc2)cc(C)c1SC[N+](=O)[O-]` [Example 3, N-[3,5-Dimethyl-4-[(nitromethyl)thio]phenyl]benzenesulphonamide] gave a melting point of 146 to 148 °C.
In the case of `Cc1cc(NS(C)(=O)=O)cc(C)c1S(=O)(=O)C[N+](=O)[O-]` (as salt: acetate) [Example 40, N-[3,5-Dimethyl-4-[(nitromethyl)sulphonyl]phenyl]-methanesulphonamide], the melting point is reported as 138 to 140 °C.
With `CC(=O)Nc1cccc(S(=O)(=O)Nc2cc(C)c(S(=O)(=O)C[N+](=O)[O-])c(C)c2)c1` [Example 50, N-[3[[3,5-Dimethyl-4-[(nitromethyl)sulphonyl]phenylamino]sulphonyl]phenyl]acetamide] the melting point was 108 to 110 °C.
